# According to patent publication US20190030018A1 (Celgene Corporation, priority 2017, published 2019):
# Tested on: 563 solid tumor cell lines
# Experiment: Luminex assay in PRISM, 5 days treatment (AUC)
# Assay type: cell-based
# Parameters: AUC: scale not given here
# Method: The AUC values provided in Table 80 below were calculated based on the Median Fluorescent Intensity values, the primary read out of the Luminex assay in PRISM. The following parameters were used in this assay: • 8 point dose was used in triplicate • max concentration of 10 μM was used with serial 4-fold dilutions (low of […]) • 563 adherent cell lines in 23 pools. • treatment duration was 5 days.
smiles,measurement,setting,value
"O=C1CCC(N2Cc3cc(CNC(=O)C(F)(F)c4ccc(Cl)cc4)ccc3C2=O)C(=O)N1 (stereo not shown) [Compound 1, 2-(4-chlorophenyl)-N-((2-(2,6-dioxopiperidin-3-yl)-1-oxoisoindolin-5-yl)methyl)-2,2-difluoroacetamide]",AUC,MON_SOFT_TISSUE,0.789
same,AUC,MPP89_PLEURA,0.822
same,AUC,NB1_AUTONOMIC_GANGLIA,0.096
same,AUC,NCIH23_LUNG,0.951
same,AUC,NCIH28_PLEURA,0.936
same,AUC,NCIH226_LUNG,0.637
same,AUC,NCIH322_LUNG,0.714
same,AUC,NCIH441_LUNG,0.755
same,AUC,NCIH446_LUNG,0.820
same,AUC,NCIH460_LUNG,0.917
same,AUC,NCIH520_LUNG,0.562
same,AUC,NCIH522_LUNG,0.974
same,AUC,NCIH596_LUNG,0.893
same,AUC,NCIH647_LUNG,0.957
same,AUC,NCIH650_LUNG,0.854
same,AUC,NCIH661_LUNG,0.819
same,AUC,NCIH747_LARGE_INTESTINE,0.836
same,AUC,NCIH838_LUNG,0.834
same,AUC,NCIH841_LUNG,0.848
same,AUC,NCIH1048_LUNG,0.116
same,AUC,NCIH1299_LUNG,0.806
same,AUC,NCIH1339_LUNG,0.815
same,AUC,NCIH1355_LUNG,0.878
same,AUC,NCIH1373_LUNG,0.959
same,AUC,NCIH1435_LUNG,0.862
same,AUC,NCIH1437_LUNG,0.882
same,AUC,NCIH1563_LUNG,0.140
same,AUC,NCIH1568_LUNG,0.790
same,AUC,NCIH1573_LUNG,0.995
same,AUC,NCIH1581_LUNG,0.552
same,AUC,NCIH1623_LUNG,0.997
same,AUC,NCIH1648_LUNG,0.828
same,AUC,NCIH1650_LUNG,0.835
same,AUC,NCIH1693_LUNG,0.949
same,AUC,NCIH1703_LUNG,0.879
same,AUC,NCIH1793_LUNG,0.290
same,AUC,NCIH1915_LUNG,0.876
same,AUC,NCIH1944_LUNG,0.911
same,AUC,NCIH1975_LUNG,0.866
same,AUC,NCIH2009_LUNG,0.760
same,AUC,NCIH2030_LUNG,0.839
same,AUC,NCIH2073_LUNG,0.878
same,AUC,NCIH2077_LUNG,0.855
same,AUC,NCIH2087_LUNG,0.866
same,AUC,NCIH2110_LUNG,0.837
same,AUC,NCIH2126_LUNG,0.820
same,AUC,NCIH2170_LUNG,0.887
same,AUC,NCIH2172_LUNG,0.794
same,AUC,NCIH2196_LUNG,0.870
same,AUC,NCIH2228_LUNG,0.851
same,AUC,NCIH2347_LUNG,0.324
same,AUC,NCIH2444_LUNG,0.620
same,AUC,NCIH2452_PLEURA,0.843
same,AUC,NCIN87_STOMACH,0.881
same,AUC,NUGC3_STOMACH,0.261
same,AUC,NUGC4_STOMACH,0.839
same,AUC,OAW28_OVARY,0.814
same,AUC,OC314_OVARY,0.915
same,AUC,OC316_OVARY,0.872
same,AUC,OE19_OESOPHAGUS,0.808
same,AUC,OE21_OESOPHAGUS,0.893
same,AUC,OE33_OESOPHAGUS,0.847
same,AUC,ONS76_CENTRAL_NERVOUS_SYSTEM,0.811
same,AUC,OSRC2_KIDNEY,0.842
same,AUC,OV7_OVARY,0.597
same,AUC,OV56_OVARY,0.874
same,AUC,OV90_OVARY,0.939
same,AUC,OVCAR8_OVARY,0.844
same,AUC,OVISE_OVARY,0.630
same,AUC,OVKATE_OVARY,0.851
same,AUC,OVSAHO_OVARY,0.617
same,AUC,OVTOKO_OVARY,0.907
same,AUC,PANC1_PANCREAS,0.781
same,AUC,PANC0203_PANCREAS,0.927
same,AUC,PANC0327_PANCREAS,0.813
same,AUC,PANC0403_PANCREAS,0.877
same,AUC,PANC0504_PANCREAS,0.245
same,AUC,PANC1005_PANCREAS,0.540
same,AUC,PATU8902_PANCREAS,0.145
same,AUC,PATU8988T_PANCREAS,0.075
same,AUC,PC3_PROSTATE,0.735
same,AUC,PC14_LUNG,0.500
same,AUC,PECAPJ15_UPPER_AERODIGESTIVE_TRACT,0.877
same,AUC,PECAPJ41CLONED2_UPPER_AERODIGESTIVE_TRACT,0.719
same,AUC,PECAPJ49_UPPER_AERODIGESTIVE_TRACT,0.843
same,AUC,PEDS005TADH_KIDNEY,0.448
same,AUC,PEDS015T_SOFT_TISSUE,0.814
same,AUC,PK1_PANCREAS,0.859
same,AUC,PK45H_PANCREAS,0.843
same,AUC,PK59_PANCREAS,0.778
same,AUC,PLCPRF5_LIVER,0.833
same,AUC,PSN1_PANCREAS,0.820
same,AUC,QGP1_PANCREAS,0.976
same,AUC,RCC10RGB_KIDNEY,0.801
same,AUC,RDES_BONE,0.571
same,AUC,RD_SOFT_TISSUE,0.769
same,AUC,RERFLCAD1_LUNG,0.782
same,AUC,RERFLCAD2_LUNG,0.874
same,AUC,RERFLCAI_LUNG,0.859
same,AUC,RERFLCKJ_LUNG,0.824
same,AUC,RKN_SOFT_TISSUE,0.988
same,AUC,RKO_LARGE_INTESTINE,0.847
same,AUC,RL952_ENDOMETRIUM,0.403
same,AUC,RMUGS_OVARY,0.857
same,AUC,RPMI7951_SKIN,0.786
same,AUC,RT112_URINARY_TRACT,0.766
same,AUC,RVH421_SKIN,0.839
same,AUC,S117_SOFT_TISSUE,0.866
same,AUC,SBC5_LUNG,0.948
same,AUC,SCC25_UPPER_AERODIGESTIVE_TRACT,0.782
same,AUC,SF126_CENTRAL_NERVOUS_SYSTEM,0.862
same,AUC,SF295_CENTRAL_NERVOUS_SYSTEM,0.917
same,AUC,SF539_CENTRAL_NERVOUS_SYSTEM,0.888
same,AUC,SH4_SKIN,0.537
same,AUC,SH10TC_STOMACH,0.886
